Experimental data published in US7709481B2, “Phenyl-1,2,4-oxadiazolone derivatives, processes for their preparation and methods for their use as pharmaceuticals” (Sanofi-Aventis, priority 2005, dated 2010).

Key:
human PPARalpha = biological target: T1, human PPARalpha (Homo sapiens, UniProt Q07869); test: Cellular PPARalpha assay (HEK PPARalpha reporter cell line, luciferase); format: cell-based; conditions: 24 h incubation
T1 construct: human PPARalpha receptor (amino acids S167-Y468); expressed in transfected cells; plasmid pcDNA3
T1 sequence (Q07869 167-468): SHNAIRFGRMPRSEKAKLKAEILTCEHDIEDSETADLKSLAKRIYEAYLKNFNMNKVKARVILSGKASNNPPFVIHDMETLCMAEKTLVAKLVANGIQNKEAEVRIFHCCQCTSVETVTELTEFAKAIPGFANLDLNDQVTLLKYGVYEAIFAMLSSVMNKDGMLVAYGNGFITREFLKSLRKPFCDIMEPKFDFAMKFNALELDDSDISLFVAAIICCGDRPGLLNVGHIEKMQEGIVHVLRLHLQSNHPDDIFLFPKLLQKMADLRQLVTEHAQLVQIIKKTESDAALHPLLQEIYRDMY
Experimental: The activity of the compounds was tested as follows. The potency of substances which bind to human PPARalpha and activate it in an agonistic manner is analyzed using a stably transfected HEK cell line (HEK=human embryo kidney) which is referred to here as PPARalpha reporter cell line. It contains two genetic elements, a luciferase reporter element (pdeltaM-GAL4-Luc-Zeo) and a PPARalpha fusion protein (GR-GAL4-humanPPARalpha-LBD) which mediates expression of the luciferase reporter element depending on a PPARalpha ligand. The stably and constitutively expressed fusion protein GR-GAL4-humanPPARalpha-LBD binds in the cell nucleus of the PPARalpha reporter cell line via the GAL4 protein portion to the GAL4 DNA binding motifs 5′-upstream of the luciferase reporter element which is stably integrated in the genome of the cell line. There is only weak expression of the luciferase reporter gene in the absence of a PPARalpha ligand if fatty acid-depleted fetal calf serum (cs-FCS) is used in the assay. PPARalpha ligands bind and activate the PPARalpha fusion protein and thereby stimulate the expression of the luciferase reporter gene. The luciferase which is formed can be detected by means of chemiluminescence via an appropriate substrate.
The PPARalpha reporter cell line was prepared in two stages. Firstly, the luciferase reporter element was constructed and stably transfected into HEK cells. For this purpose, five binding sites of the yeast transcription factor GAL4 (Accession # AF264724) were cloned in 5′-upstream of a 68 bp-long minimal MMTV promoter (Accession # V01175). The minimal MMTV promoter section contains a CCAAT box and a TATA element in order to enable efficient transcription by RNA polymerase II. The cloning and sequencing of the GAL4-MMTV construct took place in analogy to the description of Sambrook J. et. al. (Molecular cloning, Cold Spring Harbor Laboratory Press, 1989). Then the complete Photinus pyralis gene (Accession # M15077) was cloned in 3′-downstream of the GAL4-MMTV element. After sequencing, the luciferase reporter element consisting of five GAL4 binding sites, MMTV promoter and luciferase gene was recloned into a plasmid which confers zeocin resistance in order to obtain the plasmid pdeltaM-GAL4-Luc-Zeo. This vector was transfected into HEK cells in accordance with the statements in Ausubel, F. M. et al. (Current protocols in molecular biology, Vol. 1-3, John Wiley & Sons, Inc., 1995).
In a second step, the PPARalpha fusion protein (GR-GAL4-humanPPARalpha-LBD was introduced into the stable cell clone described. For this purpose, initially the cDNA coding for the N-terminal 76 amino acids of the glucocorticoid receptor (Accession # P04150) was linked to the cDNA section coding for amino acids 1-147 of the yeast transcription factor GAL4 (Accession # P04386). The cDNA of the ligand-binding domain of the human PPARalpha receptor (amino acids S167-Y468; Accession # S74349) was cloned in at the 3′-end of this GR-GAL4 construct. The fusion construct prepared in this way (GR-GAL4-humanPPARalpha-LBD) was recloned into the plasmid pcDNA3 (Invitrogen) in order to enable constitutive expression therein by the cytomegalovirus promoter. This plasmid was linearized with a restriction endonuclease and stably transfected into the previously described cell clone containing the luciferase reporter element. The finished PPARalpha reporter cell line which contains a luciferase reporter element and constitutively expresses the PPARalpha fusion protein (GR-GAL4-human PPARalpha-LBD) was isolated by selection with zeocin (0.5 mg/ml) and G418 (0.5 mg/ml).
The activity of PPARalpha agonists is determined in a 3-day assay which is described below: […]

human PPARdelta = biological target: T2, human PPARdelta (Homo sapiens, UniProt Q03181); test: Cellular PPARdelta assay (HEK PPARdelta reporter cell line, luciferase); format: cell-based; conditions: 24 h incubation
T2 construct: human PPARdelta receptor (amino acids S139-Y441); expressed in transfected cells; plasmid pcDNA3
T2 sequence (Q03181 139-441): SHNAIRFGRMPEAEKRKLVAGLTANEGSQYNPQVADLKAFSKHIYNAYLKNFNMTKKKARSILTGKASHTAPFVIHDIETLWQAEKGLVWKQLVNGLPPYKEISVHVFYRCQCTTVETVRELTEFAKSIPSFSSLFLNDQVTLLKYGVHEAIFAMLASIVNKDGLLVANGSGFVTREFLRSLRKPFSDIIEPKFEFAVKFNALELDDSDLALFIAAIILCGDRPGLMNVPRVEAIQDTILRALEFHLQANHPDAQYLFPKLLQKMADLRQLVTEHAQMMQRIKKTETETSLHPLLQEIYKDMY
Experimental: The raw data from the luminometer are transferred into a Microsoft Excel file. Dose-effect plots and EC50 values of PPAR agonists are calculated using the XL.Fit program as specified by the manufacturer (IDBS). […] Compounds of the invention of the formula I activate the PPARalpha receptor. Determination of EC50 values of PPAR agonists in the cellular PPARdelta assay The potency of substances which bind to human PPARdelta and activate it in an agonistic manner is analyzed using a stably transfected HEK cell line (HEK=human embryo kidney) which is referred to here as PPARdelta reporter cell line. In analogy to the assay described for PPARalpha, the PPARdelta reporter cell line also contains two genetic elements, a luciferase reporter element (pdeltaM-GAL4-Luc-Zeo) and a PPARdelta fusion protein (GR-GAL4-humanPPARdelta-LBD) which mediates expression of the luciferase reporter element depending on a PPARdelta ligand. The stably and constitutively expressed fusion protein GR-GAL4-humanPPARdelta-LBD binds in the cell nucleus of the PPARdelta reporter cell line via the GAL4 protein portion to the GAL4 DNA binding motifs 5′-upstream of the luciferase reporter element which is stably integrated in the genome of the cell line. There is only little expression of the luciferase reporter gene in the absence of a PPARdelta ligand if fatty acid-depleted fetal calf serum (cs-FCS) is used in the assay. PPARdelta ligands bind and activate the PPARdelta fusion protein and thereby stimulate expression of the luciferase reporter gene. The luciferase which is formed can be detected by means of chemiluminescence via an appropriate substrate.
The production of the stable PPARdelta reporter cell line is based on a stable HEK-cell clone which was stably transfected with a luciferase reporter element. This step was already described above in the section “construction of the PPARalpha reporter cell line”. In a second step, the PPARdelta fusion protein (GR-GAL4-humanPPARdelta-LBD was stably introduced into this cell clone. For this purpose, the cDNA coding for the N-terminal 76 amino acids of the glucocorticoid receptor (Accession # P04150) was linked to the cDNA section coding for amino acids 1-147 of the yeast transcription factor GAL4 (Accession # P04386). The cDNA of the ligand-binding domain of the human PPARdelta receptor (amino acids S139-Y441; Accession # L07592) was cloned in at the 3′-end of this GR-GAL4 construct. The fusion construct prepared in this way (GR-GAL4-humanPPARdelta-LBD) was recloned into the plasmid pcDNA3 (Invitrogen) in order to enable constitutive expression by the cytomegalovirus promoter. This plasmid was linearized with a restriction endonuclease and stably transfected into the previously described cell clone containing the luciferase reporter element. The resulting PPARdelta reporter cell line which contains a luciferase reporter element and constitutively expresses the PPARdelta fusion protein (GR-GAL4-human PPARdelta-LBD) was isolated by selection with zeocin (0.5 mg/ml) and G418 (0.5 mg/ml).
The activity of PPARdelta agonists is determined in a 3-day assay in exact analogy to the procedure already described for the PPARalpha reporter cell line except that the PPARdelta reporter cell line and a specific PPARdelta agonist was used as a standard to control test efficacy. PPARdelta EC50 values in the range from 0.3 nM to >10 μM were measured for the PPAR agonists of Examples 1 to 69 described in this application. Compounds of the invention of the formula I activate the PPARdelta receptor.

Row | EC50 (human PPARalpha) [nM] | EC50 (human PPARdelta) [nM] | SMILES
1 | 1260 | 230 | Cc1nc(C2CCCCC2)sc1COc1ccc(-c2noc(=O)[nH]2)c(Cl)c1 [Example 5, 3-[2-Chloro-4-(2-cyclohexyl-4-methyl-thiazol-5-ylmethoxy)-phenyl]-4H-[1,2,4]oxadiazol-5-one]
2 | 530 | 70 | COCc1nc(CCC2CCCCC2)sc1COc1ccc(-c2noc(=O)[nH]2)c(Cl)c1 [Example 10, 3-{2-Chloro-4-[2-(2-cyclohexyl-ethyl)-4-methoxymethyl-thiazol-5-ylmethoxy]-phenyl}-4H-[1,2,4]oxadiazol-5-one]
3 | 1250 | 130 | COCc1nc(C2CCCCCC2)sc1COc1ccc(-c2noc(=O)[nH]2)c(Cl)c1 [Example 11, 3-[2-Chloro-4-(2-cycloheptyl-4-methoxymethyl-thiazol-5-ylmethoxy)-phenyl]-4H-[1,2,4]oxadiazol-5-one]
4 | 800 | 10 | COCc1nc([C@H]2CC[C@H](c3ccc(Cl)cc3)CC2)sc1COc1ccc(-c2noc(=O)[nH]2)c(Cl)c1 [Example 12, Trans-3-(2-Chloro-4-{2-[4-(4-chloro-phenyl)-cyclohexyl]-4-methoxymethyl-thiazol-5-ylmethoxy}-phenyl)-4H-[1,2,4]oxadiazol-5-one]
5 | 2500 | 40 | COCc1nc([C@H]2CC[C@H](C(F)(F)F)CC2)oc1COc1ccc(-c2noc(=O)[nH]2)c(Cl)c1 [Example 18a, Trans-3-{2-Chloro-4-[4-methoxymethyl-2-(4-trifluoromethyl-cyclohexyl)-oxazol-5-ylmethoxy]-phenyl}-4H-[1,2,4]oxadiazol-5-one]
6 | 75 | 0.3 | O=c1[nH]c(-c2ccc(OCc3sc(-c4ccc(C(F)(F)F)nc4)nc3CCCOCc3ccccc3)cc2Cl)no1 [Example 25, 3-{4-[4-(3-Benzyloxy-propyl)-2-(6-trifluoromethyl-pyridin-3-yl)-thiazol-5-ylmethoxy]-2-chloro-phenyl}-4H-[1,2,4]oxadiazol-5-one]
7 | > 33000 | 14 | Cc1nc(-c2ccc(C(F)(F)F)nc2)sc1C(OCc1ccc(-c2noc(=O)[nH]2)c(F)c1)C(F)(F)F (stereo not drawn) [Example 31, 3-(2-Fluoro-4-{2,2,2-trifluoro-1-[4-methyl-2-(6-trifluoromethyl-pyridin-3-yl)-thiazol-5-yl]-ethoxymethyl}-phenyl)-4H-[1,2,4]oxadiazol-5-one]
8 | > 33000 | 59 | Cc1nc(-c2ccc(C(F)(F)F)nc2)sc1C(OCc1ccc(-c2noc(=O)[nH]2)c(Cl)n1)C(F)(F)F (stereo not drawn) [Example 37, 3-(2-Chloro-6-{2,2,2-trifluoro-1-[4-methyl-2-(6-trifluoromethyl-pyridin-3-yl)-thiazol-5-yl]-ethoxymethyl}-pyridin-3-yl)-4H-[1,2,4]oxadiazol-5-one]
9 | 5440 | 86 | Cc1nc([C@H]2CC[C@H](C(F)(F)F)CC2)sc1C(OCc1ccc(-c2noc(=O)[nH]2)c(C2CC2)c1)C(F)(F)F (stereo partly drawn) [Example 39, 3-(2-Cyclopropyl-4-{2,2,2-trifluoro-1-[4-methyl-2-(trans,1,4-trifluoromethyl-cyclohexyl)-thiazol-5-yl]-ethoxymethyl}-phenyl)-4H-[1,2,4]oxadiazol-5-one]
10 | 4330 | 7390 | Cc1nc(-c2cccc3cccnc23)sc1COc1ccc(-c2nc(=O)o[nH]2)c(Cl)c1 [Example 46, 3-[2-Chloro-4-(4-methyl-2-quinolin-8-yl-thiazol-5-ylmethoxy)-phenyl]-2H-[1,2,4]oxadiazol-5-one]
11 | 335 | 7 | CCC(Oc1cc(OC)c(-c2noc(=O)[nH]2)cc1F)c1sc([C@H]2CC[C@H](C(F)(F)F)CC2)nc1C (stereo partly drawn) [Example 51, 3-(5-Fluoro-2-methoxy-4-{1-[4-methyl-2-(trans-1,4-trifluoromethyl-cyclohexyl)-thiazol-5-yl]-propoxy}-phenyl)-4H-1,2,4-oxadiazol-5-one]
12 | > 33000 | 7 | CCC(Oc1ccc(-c2noc(=O)[nH]2)c(OC(F)F)c1)c1sc([C@H]2CC[C@H](C(F)(F)F)CC2)nc1CN1CCC(C(F)(F)F)CC1 (stereo partly drawn) [Example 61, 3-(2-Difluoromethoxy-4-{1-[2-(trans-1,4-trifluoromethyl-cyclohexyl)-4-(4-trifluoromethyl-piperidin-1-ylmethyl)-thiazol-5-yl]-propoxy}-phenyl)-4H-1,2,4-oxadiazol-5-one]
